Consider one compound from article PMC2725291, “Genetic and Molecular Basis of Individual Differences in Human Umami Taste Perception” (PLoS ONE, 2009).

In one assay the test system is 254 Japanese subjects. The assay is described as follows: Taste recognition threshold measurement (staircase method). The assay is classed as in vivo, human. Particulars: for mean recognition threshold by Gaussian fit analysis: center±S.E. of gaussian curve. The source says:
A total of 254 healthy, non-obese, non-diabetic Japanese volunteers [male/female: 141/113, age: 20–36, body mass index (BMI); 16.5–24.8] participated in this study. The purpose of the study as well as the methods and procedure were explained to the participants and the patients in this manuscript have given written informed consent. All protocols were approved by the local ethics committee at Kyushu University. Subjects were asked to refrain from consuming alcohol the day before testing, caffeine on the day of testing, and food during the experimentation period. The inclusion criteria were satisfactory state of oral hygiene, non-smoking, regular work, sleep, and meal schedules.
As MSG contains sodium, great care was taken to compare individual sensitivities to MSG relative to NaCl. […] The differences in concentrations in the present study were in 0.3 log steps, which mean step-wise increases in concentration by a factor of 2.0. All solutions were made up in distilled water and used at room temperature. The testing procedure was the staircase-method modified from Pasquet et al.. Each subject evaluated all 7 tastants. The seven series of solutions were presented one after another within a single section. Within each series, the solutions with each 2.0 ml were applied to the whole tongue of each subject with a pipet in order of ascending concentrations. The subjects were asked not to swallow test solutions and rinse their mouth between two solutions with distilled water. The subject was requested to correctly name the taste quality in each series. Once the taste of two successive concentrations was recognized successfully, the subject was given the previous unrecognized concentration (first reversal). The points at which concentration sequence changed from a decrease to an increase or vice versa were designated “reversals”. The procedure was terminated after five reversals, and the threshold was calculated as the mean of the concentration values of the last four reversals.
Student's t-test was used for detection of differences in the mean recognition thresholds between males and females. The χ^2 test was used for checking Hardy-Weinberg Equilibrium (HWE) for the genotype frequencies in samples to control genotyping errors, for detection of differences in genotype and allele frequencies between high and low taste recognition threshold groups. Yates'χ^2 test was used when the number was less than 10. The mean values (the center±S.E. of gaussian curve on X-axis) in the distribution of recognition thresholds defined by TAS1R1/TAS1R3 haplotypes (TAS1R1-372A/TAS1R3-757R homozygotes, TAS1R1-372T/TAS1R3-757R homozygotes, homo- and heterozygotes containing TAS1R3-757C) were calculated using gauss fit function of Origin 5.0 (OriginLab Corp). For Ca^2+ imaging analysis, data were normalized to response to 10 µM ISO, and mean values (±S.E.) were calculated from 10∼18 independent analyses. EC50 values were calculated from individual cumulative concentration-response data using sigmoid fit functions of Origin 5.0. One factor ANOVAs were conducted for detection of differences in the distributions of recognition thresholds for umami substances among 3 groups defined by TAS1R1/TAS1R3 haplotypes, and in the responses to 5, 20 and 50 mM MSG or 0.3, 5 and 50 mM M+I among TAS1R1/TAS1R3 variants in Ca^2+ imaging analysis. When the ANOVA was significant, post-hoc Student's t-test or Fisher's PLSD test was performed to compare individual means at each umami compound or concentration. Significance level was 0.05.

The next assay relates to TAS1R1/TAS1R3 variants. The assay is described as follows: Ca2+ imaging (FlexStation II), comparison across receptor variants (AR, TR, AC, TC). The assay is classed as cell-based, human. Particulars: MSG alone. The source says: Intronless human TAS1Rs and Gαl6 expression constructs were generated in the pEF-DEST51 Gateway vector (Invitrogen) by genomic DNA-based methods. To subclone each gene into the vector, a Kozak cassette was introduced at the 5′ end before the start codon. Gαl6 chimeras were generated by PCR with mutagenic primers. The carboxyl-terminal tail of Gαl6, five-residue (EINLL) was replaced by its counterpart from Gαi3 (ECGLY; Gα16-i3), Gαgust (DCGLF; Gα16-gust), and Gα16-gust44 was generated as described. The integrity of all DNA constructs was confirmed by DNA sequencing. Point mutations in TAS1Rs were made using the same overlapping PCR strategy with mutagenic primers.
HEK293 cells were cultured at 37°C under a humidified atmosphere containing 5% CO2 in Dulbecco's modified Eagle's medium supplemented with 10% fetal bovine serum. To obtain reproducible Ca^2+ responses, cells were split every 2 days before cells become confluent. Cells were discarded after 2 months of passages and new cells were prepared from frozen-stock. For calcium imaging experiments, cells were seeded onto a 35 mm recording chamber or poly-D-lysine coated 96-well black-wall, clear-bottom recording plates. After 24 hrs at 37°C, confluent cells (60∼70%) were washed in OptiMEM medium supplemented with GlutaMAX-I (invitrogen) and plasmid DNAs were transiently cotransfected into HEK293 cells using Lipofectamine2000 regent (invitrogen) (2.0 µl per 1.0 µg DNA). […]
Student's t-test was used for detection of differences in the mean recognition thresholds between males and females. […] The mean values (the center±S.E. of gaussian curve on X-axis) in the distribution of recognition thresholds defined by TAS1R1/TAS1R3 haplotypes (TAS1R1-372A/TAS1R3-757R homozygotes, TAS1R1-372T/TAS1R3-757R homozygotes, homo- and heterozygotes containing TAS1R3-757C) were calculated using gauss fit function of Origin 5.0 (OriginLab Corp). For Ca^2+ imaging analysis, data were normalized to response to 10 µM ISO, and mean values (±S.E.) were calculated from 10∼18 independent analyses.

Structures are written as SMILES.

Turning to `N[C@@H](CCC(=O)O)C(=O)[O-].[Na+]` [MSG, monosodium glutamate], the “mean recognition threshold by Gaussian fit analysis” value with 254 Japanese subjects (AR homozygotes (372A/757R)) is 7.51 ± 0.44 mM; with 254 Japanese subjects (TR homozygotes (372T/757R)), 4.38 ± 0.29 mM; with 254 Japanese subjects (homo- and heterozygotes containing TAS1R3-757C), 8.60 ± 0.20 mM. Moreover, the “mean (±S.E.) recognition threshold” value in the assay with 254 Japanese subjects (AR homozygotes (372A/757R, n = 84)) came to 6.23 ± 0.45 mM; in the assay on 254 Japanese subjects (TR homozygotes (372T/757R, n = 37)) it was 4.65 ± 0.47 mM; in the assay on 254 Japanese subjects (all subjects (254 Japanese, both genders)), 7.66 ± 0.43 mM; in the assay on 254 Japanese subjects (homo- and heterozygotes containing TAS1R3-757C (n = 39)), 8.43 ± 0.98 mM. In the assay on 254 Japanese subjects (TR<AR<TAS1R3-757C), the “difference of mean recognition thresholds among 3 groups divided by TAS1R1-A372T and TAS1R3-R757C haplotypes” value was 2∼3 fold. Moreover, the mean recognition threshold with 254 Japanese subjects (female subjects) is 6.91 ± 0.62 mM; with 254 Japanese subjects (male subjects), 8.27 ± 0.60 mM. In addition, the “more sensitive responses (EC50 comparison) of 372T/757R (TR) compared to the other variants (AR, AC and TC)” value with TAS1R1/TAS1R3 variants was “about 1.5 fold”. Moreover, the EC50 on TAS1R1/TAS1R3 variants (the other variants (AR, AC and TC)) was in the range of 27.6 to 32.2 mM.
